Test results reported in article PMC12368495, “Pharmacokinetic/pharmacodynamic parameters of teicoplanin for predicting clinical outcome of glycopeptide-susceptible Enterococcus faecium bacteraemia” (JAC-Antimicrobial Resistance, 2025).

What was measured:
[1] = tested on: GSEF bacteraemia; settings: cited from earlier work
[2] = tested on: glycopeptide-susceptible Enterococcus faecium (GSEF); test: Teicoplanin MIC by automated broth microdilution (MicroScan WalkAway-96 Plus); assay type: cell-based; settings: all isolates; measurement range 2, 4, 8, 16 mg/L
Experimental: Blood culture specimens were processed using the BACTEC FX system (Becton Dickinson Microbiology Systems, Sparks, MD, USA). Species identification of bacterial isolates recovered from blood cultures was performed using the MALDI Biotyper 1.0 (Bruker Daltonics, Bremen, Germany). Antimicrobial susceptibilities to ampicillin and teicoplanin were tested using the MicroScan WalkAway system (Beckman Coulter Japan, Tokyo, Japan) and interpreted according to the Clinical and Laboratory Standards Institute (M100-S26) breakpoints.[21] Polymicrobial bacteraemia was defined as cases where one or more microorganisms, in addition to E. faecium, were isolated from the same blood culture and were not classified as contaminants according to the CDC criteria.[16]
For this study, teicoplanin MIC determinations were performed on archived isolates using a commercial automated broth microdilution method with the MicroScan WalkAway-96 Plus system (MICWalkAway) (Beckman Coulter) and gradient diffusion method (MICEtest) (Etest, bioMérieux) following the manufacturer’s instructions. […] In cases where disagreement occurred among all three operators, the MIC was retested and determined by the representative operator, taking the initial results into consideration.

[3] = tested on: glycopeptide-susceptible Enterococcus faecium (GSEF); test: Teicoplanin MIC by gradient diffusion method (Etest) on archived blood isolates; assay type: cell-based; settings: for MICEtest: median (IQR), Etest
Experimental: For this study, teicoplanin MIC determinations were performed on archived isolates using a commercial automated broth microdilution method with the MicroScan WalkAway-96 Plus system (MICWalkAway) (Beckman Coulter) and gradient diffusion method (MICEtest) (Etest, bioMérieux) following the manufacturer’s instructions. Due to a change in the MIC measurement range during the study period, all isolates were remeasured using the MicroScan WalkAway-96 Plus system for consistency. The MICWalkAway measurement range was 2, 4, 8, and 16 mg/L. The MICEtest results were reviewed and confirmed independently by three clinical microbiologists who were blinded to the clinical outcomes of the patients from whom the isolates were obtained. In cases where disagreement occurred among all three operators, the MIC was retested and determined by the representative operator, taking the initial results into consideration.

[4] = in vivo; cited from earlier work
Experimental: (§1) The estimation of fAUC24 involved a multi-step process. First, the total drug AUC over a 24-h interval during the maintenance phase (AUC24) was calculated for each patient. This was based on individual total clearance (CLtotal) estimated from the observed Cmin through Bayesian analysis. This analysis employed a previously developed population PK (PopPK) model for Japanese patients constructed by Nakayama et al.[23] This PopPK model was based on data from 120 Japanese adult inpatients with MRSA infections and incorporates creatinine clearance and body weight as covariates, making it applicable ...

[5] = Teicoplanin trough concentration and Bayesian estimation of AUC24/fAUC24 in patients; assay type: in vivo, human
Experimental: The primary PK/PD parameter for this study was the ratio of the estimated 24-h free-drug area under the curve to the MIC (fAUC24/MICEtest). The estimation of fAUC24 was based on total Cmin measured during the maintenance phase of therapy (at least 3 days after treatment initiation). Our institutional dosing protocol recommends a loading dose of 8–10 mg/kg administered three times approximately every 12 h within the first 48 h for patients with normal renal function, followed by a maintenance dose of 6 mg/kg once daily from Day 3. This loading regimen is intended to rapidly achieve therapeutic concentrations, allowing Cmin values measured during the maintenance phase to serve as a reliable surrogate for drug exposure. Teicoplanin doses were routinely proposed by a pharmacist using therapeutic drug monitoring (TDM) with a target Cmin for teicoplanin set at 15–30 mg/L in line with guideline recommendations,[22] though actual dosing was determined at the discretion of the attending physician.
as §1, with “to our study population. […] Based on the estimated CLtotal for each patient, the AUC24 was calculated as AUC24 (mg·h/L) = daily maintenance dose (mg)/CLtotal (L/h).[13],[24] Second, to account for the impact of hypoalbuminaemia, a patient-specific unbound fraction (fu) was estimated based on a validated model developed specifically for teicoplanin in a Japanese patient population by Yano et al.[25] The model predicts the fu using the patient’s ALB concentration with the following formula: […]” for “...”
where ALB is expressed in g/dL.
Finally, the free AUC24 (fAUC24) was estimated by multiplying the total AUC24 by fu. The resulting fAUC24/MICEtest ratio was used for all subsequent PK/PD analyses.
PK parameters for each patient were determined using the TDM software, BMs-Pod (ver 8.06, https://bmspod.web.fc2.com/).[26],[27]

[6] = tested on: GSEF bacteraemia; test: Clinical outcomes of teicoplanin-treated GSEF bacteraemia (retrospective cohort); assay type: in vivo, human; settings: for Treatment failure: 30-day all-cause mortality or microbiological failure
Experimental: We conducted a retrospective, single-centre, observational cohort study at The University of Tokyo Hospital between 1 April 2009 and 30 May 2023. The University of Tokyo’s ethics review board approved the study protocol (approval no. 2023138NI) and waived the requirement for written informed consent. The study was conducted in accordance with the ethical standards of the 1964 Declaration of Helsinki and its subsequent amendments. Patients with at least one GSEF-positive blood culture who received teicoplanin during the study period were deemed eligible. The exclusion criteria were as follows: lack of storage of microbiological samples, lack of teicoplanin trough concentration (Cmin), age under 18 years, renal replacement therapy or initiation of teicoplanin treatment more than 72 h after infection. GSEF bacteraemia was defined as one or more blood cultures positive for E. faecium resistant to ampicillin, and susceptible to teicoplanin and vancomycin, accompanied by signs or symptoms of infection consistent with suspected infection sites, as established in previous studies.[9],[15],[16] Polymicrobial infections were included in the analysis. For patients with a history of multiple treatments for GSEF bacteraemia, only the first treatment was considered.
The primary outcome, treatment failure, was defined as a composite of (i) 30-day all-cause mortality or (ii) microbiological failure, defined as persistent bacteraemia (a positive follow-up blood culture obtained >72 h after initiation of appropriate therapy) in patients with at least one follow-up blood culture).[28],[29] In patients without follow-up blood cultures, microbiological failure was not assessed, and treatment failure was determined solely based on 30-day all-cause mortality. […] Secondary outcomes included 90-day all-cause mortality (death within 90 days of the first positive GSEF blood culture), in-hospital mortality (death occurring during hospitalization), relapse (recurrence of GSEF bacteraemia after negative blood cultures following GSEF treatment) and readmission within 90 days of the first positive GSEF blood culture. Relapse was defined as recurrence of GSEF bacteraemia after documented microbiological clearance, confirmed by at least one negative follow-up blood culture. All clinical outcomes and PK parameter estimation (including AUC calculation) were conducted by an infectious disease pharmacist with access to treatment details and patient clinical courses. MIC measurements were performed independently by separate investigators and were integrated only after clinical outcome evaluation was completed. Safety outcomes included (i) incidence of AKI, diagnosed according to the KDIGO criteria (defined as 1.5× increase in sCr from baseline within 7 days or ≥0.3 mg/dL increase within 48 h of baseline following teicoplanin initiation)[30]; (ii) incidence of liver injury, defined as AST ≥ 90 U/L or ALT ≥ 126 U/L (≥3 times the upper limit during teicoplanin treatment)[31]; and (iii) other adverse events associated with teicoplanin use for GSEF bacteraemia.[15]
Continuous variables, expressed as medians with IQRs, were compared between the treatment success and treatment failure groups using the Mann–Whitney U-test. Categorical variables were compared between the two groups using the χ² test or Fisher’s exact test, as appropriate. To identify predictors of treatment failure, several steps were taken for the logistic regression analysis. First, classification and regression tree (CART) analysis was used to identify the optimal cut-off value for the fAUC24/MICEtest associated with treatment failure, according to the previous vancomycin PK/PD study.[32] This created a dichotomous variable for the PK/PD parameter. Next, a multivariable logistic regression model was constructed to assess the independent effect of the fAUC24/MICEtest on treatment failure. […]

[7] = cited from earlier work
Excerpt: The PK/PD parameter most commonly associated with the clinical efficacy of teicoplanin against MRSA is the ratio of the AUC to the MIC, referred to as AUC/MIC.[10],[11] The target AUC/MIC ratio for teicoplanin against MRSA is approximately 600–900, and achieving this target is known to improve therapeutic outcomes.[12],[13] Furthermore, teicoplanin is a highly protein-bound drug (approximately 90%), and it is the unbound (free) fraction that exerts antimicrobial activity. In critically ill patients, conditions such as hypoalbuminaemia can alter protein binding, potentially affecting the free d ...

teicoplanin
effectiveness versus vancomycin ([1]; GSEF bacteraemia treatment): non-inferior to vancomycin | incidence of acute kidney injury (AKI) versus vancomycin ([1]; in vivo): significantly lower incidence of acute kidney injury (AKI) | treatment success ratio ([1]; patients with GSEF bacteraemia): 64.9% | MICWalkAway [2]: ≤ 2 mg/L | proportion of isolates with MIC ≤ 0.5 mg/L ([3]; isolates of the cohort): 84.2% | MICEtest ([3]; treatment failure group (n = 18)): 0.50 (0.35–0.50) mg/L | MICEtest ([3]; treatment success group (n = 58)): 0.25 (0.13–0.50) mg/L | inter-individual variability (CV%) for clearance (CL) [4]: 22.1% | inter-individual variability (CV%) for volume of distribution (V) [4]: 26.7% | residual variability [4]: 15.6% | Cmin ([5]; human, in vivo): 18.3 (15.0–23.1) mg/L | inter-individual variability (CV%) for clearance ([5]; human, in vivo): 39.2% | inter-individual variability (CV%) for distribution rate parameter K12 ([5]; human, in vivo): 0.1% | inter-individual variability (CV%) for distribution rate parameter α ([5]; human, in vivo): 4.7% | inter-individual variability (CV%) for steady-state volume of distribution ([5]; human, in vivo): 43.8% | median Cmin in both groups ([5]; human, in vivo): approximately 18 mg/L | Cmin ([5]; total trough concentration, maintenance phase, treatment failure group (n = 18), median (IQR)): 18.4 (9.70–23.1) mg/L | overall 30-day mortality rate ([6]; 6/76): 7.9% | treatment failure, overall ([6]; 18 of 76 patients): 23.7% | 30-day mortality ([6]; fAUC24/MICEtest < 462 (n = 49)): 6 (12.2) n (%) | 90-day mortality ([6]; fAUC24/MICEtest < 462 (n = 49)): 17 (34.7) n (%) | In-hospital mortality ([6]; fAUC24/MICEtest < 462 (n = 49)): 12 (24.5) n (%) | Readmission within 90 days after bacteraemia ([6]; fAUC24/MICEtest < 462 (n = 49)): 22 (44.9) n (%) | Relapse ([6]; fAUC24/MICEtest < 462 (n = 49)): 7 (14.3) n (%) | Treatment failure ([6]; fAUC24/MICEtest < 462 (n = 49)): 17 (34.7) n (%) | 30-day mortality ([6]; fAUC24/MICEtest ≥ 462 (n = 27)): 0 (0.0) n (%) | 90-day mortality ([6]; fAUC24/MICEtest ≥ 462 (n = 27)): 3 (11.1) n (%) | In-hospital mortality ([6]; fAUC24/MICEtest ≥ 462 (n = 27)): 2 (7.4) n (%) | Readmission within 90 days after bacteraemia ([6]; fAUC24/MICEtest ≥ 462 (n = 27)): 8 (29.6) n (%) | Relapse ([6]; fAUC24/MICEtest ≥ 462 (n = 27)): 3 (11.1) n (%) | Treatment failure ([6]; fAUC24/MICEtest ≥ 462 (n = 27)): 1 (3.7) n (%) | Odds ratio (95% CI) of treatment failure for fAUC24/MICEtest ≥ 462, multivariable ([6]; logistic regression adjusted for CCI, immunosuppressed state, Pitt bacteraemia score): 0.099 (0.005–0.562) | Odds ratio (95% CI) of treatment failure for fAUC24/MICEtest ≥ 462, univariable ([6]; logistic regression, univariable): 0.072 (0.004–0.389) | incidence of treatment failure ([6]; patients with fAUC24/MICEtest < 462): 34.7% | incidence of treatment failure ([6]; patients with fAUC24/MICEtest ≥ 462): 3.7% | protein bound [7]: approximately 90%
